Measurements reported in patent publication US20230219965A1 (KSQ Therapeutics, Inc., priority 2020, published 2023).
Read-outs that look alike come from different tables or passages of the source.

Key:
[1] = Liver microsomal metabolic stability, rat liver microsomes (RLM); conditions: rat, liver microsomes, t1/2 (min) in RLM, 1 μM compound, 1 mg/mL microsomes, NADPH
[2] = system: Ub-PCNA levels in the nucleus of ES2 cells (USP1 activity); experiment: ES2 Ub-PCNA immunofluorescence (IF) assay; format: cell-based; conditions: Homo sapiens, ES-2; ES2 cells, 3 hours, Ub-PCNA immunofluorescence; read-out: USP1 IC50 (Ub-PCNA)
Procedure, shortened: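 AC50 derived from percent Ub-PCNA-positive nuclei, positivity set by a 95% cutoff from untreated-well intensities. Readout by imaging immunofluorescence (anti-Ub-PCNA, DAPI nuclear mask) after methanol fixation. Compound exposure: 3 h at 37° C, 0.3% DMSO final, on cells plated overnight.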

USP1/UAF1 enzyme = USP1/UAF1 enzyme (Homo sapiens, UniProt O94782); experiment: USP1/UAF1 deubiquitination assay (ubiquitin-rhodamine 110 substrate); format: biochemical; conditions: read-out: USP1 IC50 (Ub-Rho)
Procedure, shortened: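 Cleavage of 150 nM ubiquitin-rhodamine 110 by 0.05 nM USP1/UAF1 was followed as fluorescence (Ex480/Em540, kinetic, 30 min) in Tris-HCl pH 7.8 buffer with EDTA, BSA, DTT and Tween-20. Compounds, top 10 μM, were preincubated with enzyme 10 min; % inhibition against no-enzyme and DMSO wells gave four-parameter IC50s.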

[3] = Liver microsomal metabolic stability, human liver microsomes (HLM); conditions: human, liver microsomes
Procedure: Samples were prepared by adding 222.5 μL of a master solution (100 mM phosphate buffer and 1 mg/mL liver microsomes (HLM or RLM)) and 25 μL of a 10 mM NADPH solution to incubation plates, which were then warmed for 10 min. Each compound was separately dissolved in DMSO to prepare 10 mM stock solutions, which were then diluted to 100 μM with acetonitrile. A reaction was started by adding 2.5 μL of the 100 μM solution of each compound to separate incubation plates such that the final concentration of for each compound in each plate was 1 μM.
25 μL aliquots of each sample were taken at 0.5, 5, 10, 15, 20 and 30 minutes, and the reaction was stopped by adding 5 volumes of cold acetonitrile with IS (100 nM alprazolam, 200 nM caffeine and 100 nM tolbutamide). The samples were then centrifuged at 3,220 G for 30 minutes, and 100 μL of the supernatant fluid was mixed with 100 μL of ultra-pure H2O.
The samples were then analyzed by LC-MS/MS. Peak areas were determined from extracted ion chromatograms. Slope values (k) were determined by linear regression of the natural logarithm of the remaining percentage of the compound vs. incubation time curve. The in vitro half-life (in vitro t1/2) was determined from the slope value using the following equation:

[4] = ADME solubility determination in PBS at pH 2.0 and pH 7.4; format: physicochemical; conditions: phosphate buffered saline, 25 °C, thermodynamic from solid
Procedure, shortened: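 Solubility was read by LC-MS/MS on centrifuged supernatants, calibrated to a known-concentration standard and corrected for dilution. Compound, dried down from 10 mM DMSO stock, was equilibrated 24 h at 25° C with shaking in PBS at pH 2.0 or pH 7.4.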

[5] = pH 2, aqueous buffer, PBS pH 2.0, 25° C., read-out: Solubility at pH 2.0
[6] = pH 7.4, aqueous buffer, PBS pH 7.4, 25° C., read-out: Solubility at pH 7.4

Chain of USP1/UAF1 enzyme (O94782 whole entry): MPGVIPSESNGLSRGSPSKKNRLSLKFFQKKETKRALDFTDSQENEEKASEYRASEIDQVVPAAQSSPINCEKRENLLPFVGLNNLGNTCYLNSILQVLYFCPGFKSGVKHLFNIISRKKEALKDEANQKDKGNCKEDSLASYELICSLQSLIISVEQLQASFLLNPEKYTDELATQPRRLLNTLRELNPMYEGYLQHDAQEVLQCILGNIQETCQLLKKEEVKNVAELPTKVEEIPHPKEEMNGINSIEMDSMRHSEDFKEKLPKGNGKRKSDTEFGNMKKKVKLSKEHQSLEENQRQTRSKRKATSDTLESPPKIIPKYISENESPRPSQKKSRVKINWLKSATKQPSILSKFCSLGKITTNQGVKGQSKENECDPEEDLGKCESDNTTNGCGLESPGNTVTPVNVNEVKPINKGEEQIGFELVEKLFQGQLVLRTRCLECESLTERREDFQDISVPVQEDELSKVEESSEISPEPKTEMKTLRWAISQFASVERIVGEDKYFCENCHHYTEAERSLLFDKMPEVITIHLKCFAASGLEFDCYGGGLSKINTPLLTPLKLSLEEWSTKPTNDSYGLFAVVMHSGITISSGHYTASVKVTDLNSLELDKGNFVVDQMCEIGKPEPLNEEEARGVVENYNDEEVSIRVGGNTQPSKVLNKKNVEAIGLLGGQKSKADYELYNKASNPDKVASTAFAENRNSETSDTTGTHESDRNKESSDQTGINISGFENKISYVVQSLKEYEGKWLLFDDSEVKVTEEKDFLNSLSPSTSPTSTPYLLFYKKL
Chain of USP1/UAF1 enzyme (Q8TAF3 whole entry partner): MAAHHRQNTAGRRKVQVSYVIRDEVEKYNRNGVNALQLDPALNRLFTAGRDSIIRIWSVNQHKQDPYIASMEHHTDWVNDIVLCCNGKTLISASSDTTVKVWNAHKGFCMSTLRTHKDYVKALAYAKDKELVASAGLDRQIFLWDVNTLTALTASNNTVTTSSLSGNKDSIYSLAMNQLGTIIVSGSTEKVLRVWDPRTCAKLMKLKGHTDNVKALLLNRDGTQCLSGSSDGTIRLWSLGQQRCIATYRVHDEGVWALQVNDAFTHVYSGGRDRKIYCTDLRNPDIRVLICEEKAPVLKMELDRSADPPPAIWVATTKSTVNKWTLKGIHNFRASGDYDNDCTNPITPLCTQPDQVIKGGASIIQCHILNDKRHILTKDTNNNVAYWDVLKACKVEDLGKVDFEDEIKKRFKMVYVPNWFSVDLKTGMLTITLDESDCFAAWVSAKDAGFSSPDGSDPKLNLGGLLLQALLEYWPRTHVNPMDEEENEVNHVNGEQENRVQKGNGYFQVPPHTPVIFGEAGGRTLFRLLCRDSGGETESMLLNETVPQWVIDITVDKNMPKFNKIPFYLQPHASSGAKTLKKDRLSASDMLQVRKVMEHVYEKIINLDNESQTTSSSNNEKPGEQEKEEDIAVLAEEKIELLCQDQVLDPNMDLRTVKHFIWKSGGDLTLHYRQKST

Compound	half-life at 1 μM [1] [min]	IC50 [2] [nM]	IC50 (USP1/UAF1 enzyme) [nM]	half-life at 1 μM [3] [min]	solubility at 24 h [4, 5] [µM]	solubility at 24 h [4, 6] [µM]
CCOc1cc(C(F)(F)F)nn1-c1ccc(CN2C(=O)CCn3nc(-c4c(Cl)cnn4C(C)C)cc32)cc1 [Example 115]	> 25	< 100	< 100	> 25	< 10	< 10
COc1ncnc(C2CC2)c1-c1cc2n(n1)CCCN2Cc1ccc(-c2nc(C(F)(F)F)cn2C)cc1 [Example 24, 2-(4-cyclopropyl-6-methoxypyrimidin-5-yl)-4-(4-(1-methyl-4-(trifluoromethyl)-1H-imidazol-2-yl)benzyl)-4,5,6,7-tetrahydropyrazolo[1,5-α]pyrimidine]	< 25	< 100	< 100	< 25	≥ 10	≥ 10
CCOc1cccnc1-c1ccc(CN2C(=O)CCn3nc(-c4c(Cl)cnn4C(C)C)cc32)cc1Cl [Example 307]	< 25	100 to 500	< 100	< 25	< 10	< 10
CCn1cc(Cl)nc1-c1ccc(CN2C(=O)CCn3nc(-c4c(Cl)cnn4C(C)C)cc32)cc1 [Example 118]	< 25	< 100	< 100	< 25	< 10	< 10
CCn1cc(C(F)(F)F)nc1-c1ccc(NC2CCCn3nc(-c4c(Cl)cnn4C(C)C)cc32)cc1 (stereo not drawn) [Example 237, 2-(4-chloro-1-isopropyl-1H-pyrazol-5-yl)-N-(4-(1-ethyl-4-(trifluoromethyl)-1H-imidazol-2-yl)phenyl)-4,5,6,7-tetrahydropyrazolo[1,5-α]pyridin-4-amine]	< 25	< 100	< 100	> 25	< 10	< 10
CCn1cc(C(F)(F)F)nc1-c1ccc(CN2C(=O)CCn3nc(-c4c(OC)ncnc4C4CC4)nc32)cc1F [Example 44]	> 25	< 100	< 100	> 25	< 10	< 10
CCn1cc(C(F)(F)F)nc1-c1ccc([C@@H](C)n2c(=O)ccn3nc(-c4c(OC)ncnc4C4CC4)nc23)cc1 [Example 338, (R)-2-(4-cyclopropyl-6-methoxypyrimidin-5-yl)-4-(1-(4-(1-ethyl-4-(trifluoromethyl)-1H-imidazol-2-yl)phenyl)ethyl)-[1,2,4]triazolo[1,5-a]pyrimidin-5(4H)-one]	< 25	< 100	< 100	> 25	≥ 10	< 10
CCn1cc(C(F)(F)F)nc1-c1ccc(CN2C(=O)[C@@H](C)Cn3nc(-c4c(OC)ncnc4C4CC4)nc32)cc1F (single isomer, unassigned) [Example 349]	> 25	< 100	< 100	> 25	≥ 10	< 10
CC(C)n1cc(C(F)(F)F)nc1-c1ccc(C(N2CCCn3nc(-c4c(Cl)cnn4C(C)C)cc32)C(F)(F)F)cc1F (stereo not drawn) [Example 371, 2-(4-chloro-1-isopropyl-1H-pyrazol-5-yl)-4-(2,2,2-trifluoro-1-(3-fluoro-4-(1-isopropyl-4-(trifluoromethyl)-1H-imidazol-2-yl)phenyl)ethyl)-4,5,6,7-tetrahydropyrazolo[1,5-α]pyrimidine]	< 25	< 100	< 100	< 25	< 10	< 10
COc1c(CN2C(=O)CCn3nc(-c4c(Cl)cnn4C(C)C)nc32)ccc(-c2nc(C(F)(F)F)cn2C(C)C)c1F [Example 216]	> 25	100 to 500	< 100	> 25	< 10	< 10
CCn1cc(C(F)(F)F)nc1-c1ccc(Cn2c(=O)ccn3nc(-c4c(Cl)cnn4C(C)C)nc23)cc1F [Example 343, 2-(4-chloro-1-isopropyl-1H-pyrazol-5-yl)-4-(4-(1-ethyl-4-(trifluoromethyl)-1H-imidazol-2-yl)-3-fluorobenzyl)-[1,2,4]triazolo[1,5-a]pyrimidin-5(4H)-one]	> 25	< 100	< 100	> 25	< 10	< 10
CCn1cc(C(F)(F)F)nc1-c1ccc([C@H](C)N2C(=O)CCn3nc(-c4c(OC)ncnc4C4CC4)cc32)cc1 [Example 124]	< 25	> 500	100 to 500	< 25	≥ 10	≥ 10
CCn1cc(C(F)(F)F)nc1-c1ccc([C@H](C)N2C(=O)CCn3nc(-c4c(OC)ncnc4C4CC4)nc32)cc1Cl [Example 211]	< 25	< 100	< 100	> 25	≥ 10	< 10
Cc1cnn(C(C)C)c1-c1cc2n(n1)CCC(=O)N2Cc1ccc(-n2nc(C(F)(F)F)cc2C)cc1 [Example 10, 2-(1-isopropyl-4-methyl-1H-pyrazol-5-yl)-4-(4-(5-methyl-3-(trifluoromethyl)-1H-pyrazol-1-yl)benzyl)-6,7-dihydropyrazolo[1,5-a]pyrimidin-5(4H)-one]	< 25	100 to 500	< 100	< 25	< 10	< 10
CCn1cc(C(F)(F)F)nc1-c1ccc(CN2C(=O)CCn3nc(-c4c(OC)ncnc4C4CC4)cc32)cc1F [Example 78]	> 25	< 100	< 100	> 25	< 10	< 10
CCn1cc(C(F)(F)F)nc1-c1ccc(Cn2c(=O)ccn3nc(-c4c(OC)ncnc4C4CC4)cc23)cc1 [Example 332, 2-(4-cyclopropyl-6-methoxypyrimidin-5-yl)-4-(4-(1-ethyl-4-(trifluoromethyl)-1H-imidazol-2-yl)benzyl)pyrazolo[1,5-α]pyrimidin-5(4H)-one]	> 25	< 100	< 100	> 25	≥ 10	≥ 10
CCn1cc(C(F)(F)F)nc1-c1ccc(CN2CC3(CC3)Cn3nc(-c4c(OC)ncnc4C4CC4)cc32)cc1F [Example 30]	< 25	< 100	< 100	< 25	≥ 10	< 10
CCn1cc(C(F)(F)F)nc1-c1ccc(NC2CCCc3nn(-c4ccccc4C(C)C)cc32)cc1F (stereo not drawn) [Example 355, N-(4-(1-ethyl-4-(trifluoromethyl)-1H-imidazol-2-yl)-3-fluorophenyl)-2-(2-isopropylphenyl)-4,5,6,7-tetrahydro-2H-indazol-4-amine]	< 25	100 to 500	< 100	< 25	< 10	< 10
COc1ncnc(C2CC2)c1-c1nc2n(n1)CCC(=O)N2Cc1ccc(-c2nc(C(F)(F)F)cn2C(C)C)c(F)c1 [Example 164, 2-(4-cyclopropyl-6-methoxypyrimidin-5-yl)-4-(3-fluoro-4-(1-isopropyl-4-(trifluoromethyl)-1H-imidazol-2-yl)benzyl)-6,7-dihydro-[1,2,4]triazolo[1,5-α]pyrimidin-5(4H)-one]	> 25	< 100	< 100	> 25	< 10	< 10
COc1ncnc(C2CC2)c1-c1nc2n(n1)CCC(=O)N2[C@H](C)c1ccc(-c2nc(C(F)(F)F)cn2C)c(F)c1 [Example 197]	> 25	< 100	< 100	> 25	≥ 10	≥ 10
CC(C)n1ncc(Cl)c1-c1cc2n(n1)CCC(=O)N2Cc1ccc(-c2ncccc2N2CCOCC2)c(Cl)c1 [Example 296]	< 25	100 to 500	< 100	< 25	≥ 10	< 10
CCn1cc(C(F)(F)F)nc1-c1ccc([C@@H](C)N2CCCn3nc(-c4c(Cl)cnn4C(C)C)cc32)cc1 (single isomer, unassigned) [Example 68]	< 25	< 100	< 100	< 25	< 10	< 10
